Data from patent US7807679B2, “Piperazine derivatives and their use in controlling pests” (Syngenta Crop Protection, Inc., priority 2004, dated 2010).

Legend:
Format in all cases: in vivo
[1] = tested on: Spodoptera littoralis (Egyptian Cotton Leafworm); assay: Spodoptera littoralis cotton leaf disc spray test; details: foliar, 72 h, 200 ppm sprayed on cotton leaf discs, 5 L1 larvae, mortality, repellent effect, feeding behaviour, growth regulation 3 days after treatment
From the text: Spodoptera littoralis (Egyptian Cotton Leafworm)
Cotton leaf discs were placed on agar in a 24-well microtiter plate and sprayed with test solutions at an application rate of 200 ppm. After drying, the leaf discs were infested with 5 L1 larvae. The samples were checked for mortality, repellent effect, feeding behaviour, and growth regulation 3 days after treatment (DAT). The following compounds gave at least 80% control of Spodoptera littoralis: • I-3, I-26, I-29, I-30, I-49, I-52, I-53, I-75, I-417, I-532, I-578, I-785, I-854, I-877, II-49, III-49, V-49, XII-49, XIV-26, XV-26, XXIV-2, XXIV-46, XXIV-90, XXIV-93, XXIV-94, XXV-26 and XXV-49.

[2] = tested on: Heliothis virescens (Tobacco Budworm); assay: Heliothis virescens egg test on artificial diet; details: 96 h, 200 ppm by pipetting, eggs (0-24 h old) on artificial diet, egg mortality, larval mortality, growth regulation after 4 days
Description: Eggs (0-24 h old) were placed in 24-well microtiter plate on artificial diet and treated with test solutions at an application rate of 200 ppm by pipetting. After an incubation period of 4 days, samples were checked for egg mortality, larval mortality, and growth regulation. The following compounds gave at least 80% control of Heliothis virescen: • I-3, I-6, I-7, I-26, I-29, I-30, I-47, I-49, I-52, I-53, I-72, I-75, I-417, I-532, I-578, I-785, I-854, I-877, III-49, V-49, XII-49, XIV-26, XIV-49, XV-26, XVI-26, XVII-26, XXIV-2, XXIV-46, XXIV-90, XXIV-93, XXIV-94, XXV-2, XXV-26, XXV-49 and XXV-68.

[3] = tested on: Aedes aegypti (Yellow Fever Mosquito); assay: Aedes aegypti larvae test in microtiter plates; details: 48 h, larvae (L2) with nutrition mixture, mortality and growth inhibition 2 days later
From the text: 10-15 Aedes larvae (L2) together with a nutrition mixture are placed in 96-well microtiter plates. Test solutions at an application rate of 2 ppm are pipetted into the wells. 2 days later, insects were checked for mortality and growth inhibition. The following compounds gave at least 80% control of Aedes aegypti • I-3, I-26, I-29, I-30, I-49, I-52, I-53, I-72, I-75, I-76, III-49, III-118, XIV-26, XV-26, XXIV-2, XXIV-46, XXIV-90, XXIV-93, XXIV-94 and XXV-68.

[4] = tested on: Myzus persicae (Green Peach Aphid); assay: Myzus persicae sunflower leaf disc spray test; details: foliar, 144 h, 200 ppm sprayed on sunflower leaf discs, aphid population of mixed ages, mortality after 6 DAT
Description: Sunflower leaf discs were placed on agar in a 24-well microtiter plate and sprayed with test solutions at an application rate of 200 ppm. After drying, the leaf discs were infested with an aphid population of mixed ages. After an incubation period of 6 DAT, samples were checked for mortality. The following compounds gave at least 80% control of Myzus persicae: • I-3, I-26, I-29, […], I-30, I-49, I-52, I-53, I-72, I-75, III-49, V-49, XXIV-46, XXIV-90 and XXIV-94.

O=C(Nc1ccccc1N1CCN(C/C=C/c2ccc(Cl)cc2)CC1)c1ccnc(Cl)c1 [Compound I-3, 2-chloro-N-(2-{4-[(E)-3-(4-chloro-phenyl)-allyl]-piperazin-1-yl}-phenyl)-isonicotinamide]
≥ 80%: pest or weed control at 200 ppm [1] | pest or weed control at 200 ppm [2] | pest or weed control at 2 ppm [3] | pest or weed control at 200 ppm [4]

O=C(Nc1ccccc1N1CCN(C/C=C/c2ccc(C(F)(F)F)cc2)CC1)c1ccnc(Cl)c1 [Compound I-6, 2-chloro-N-(2-{4-[(E)-3-(4-trifluoromethyl-phenyl)-allyl]-piperazin-1-yl}-phenyl)-isonicotinamide]
≥ 80%: pest or weed control at 200 ppm [2]

O=C(Nc1ccccc1N1CCN(C/C=C/c2ccc(OC(F)(F)F)cc2)CC1)c1ccnc(Cl)c1 [Compound I-7, 2-chloro-N-(2-{4-[(E)-3-(4-trifluoromethoxy-phenyl)-allyl]-piperazin-1-yl}-phenyl)-isonicotinamide]
≥ 80%: pest or weed control at 200 ppm [2]

O=C(Nc1ccc(F)cc1N1CCN(C/C=C/c2ccc(Cl)cc2)CC1)c1ccnc(Cl)c1 [Compound I-26, 2-chloro-N-(4-fluoro-2-{4-[(E)-3-(4-chloro-phenyl)-allyl]-piperazin-1-yl}-phenyl)-isonicotinamide]
≥ 80%: pest or weed control at 200 ppm [1] | pest or weed control at 200 ppm [2] | pest or weed control at 2 ppm [3] | pest or weed control at 200 ppm [4]

O=C(Nc1ccc(F)cc1N1CCN(C/C=C/c2ccc(C(F)(F)F)cc2)CC1)c1ccnc(Cl)c1 [Compound I-29, 2-chloro-N-(4-fluoro-2-{4-[(E)-3-(4-trifluoromethyl-phenyl)-allyl]-piperazin-1-yl}-phenyl)-isonicotinamide]
≥ 80%: pest or weed control at 200 ppm [1] | pest or weed control at 200 ppm [2] | pest or weed control at 2 ppm [3] | pest or weed control at 200 ppm [4]

O=C(Nc1ccc(F)cc1N1CCN(C/C=C/c2ccc(OC(F)(F)F)cc2)CC1)c1ccnc(Cl)c1 [Compound I-30, 2-chloro-N-(4-fluoro-2-{4-[(E)-3-(4-trifluoromethoxy-phenyl)-allyl]-piperazin-1-yl}-phenyl)-isonicotinamide]
≥ 80%: pest or weed control at 200 ppm [1] | pest or weed control at 200 ppm [2] | pest or weed control at 2 ppm [3] | pest or weed control at 200 ppm [4]

O=C(Nc1ccc(Cl)cc1N1CCN(Cc2ccc(Cl)cc2)CC1)c1ccnc(Cl)c1 [Compound I-47, 2-Chloro-N-{4-chloro-2-[4-(4-chloro-benzyl)-piperazin-1-yl}-phenyl)-isonicotinamide]
≥ 80%: pest or weed control at 200 ppm [2]

O=C(Nc1ccc(Cl)cc1N1CCN(C/C=C/c2ccc(Cl)cc2)CC1)c1ccnc(Cl)c1 [Compound I-49, 2-chloro-N-(4-chloro-2-{4-[(E)-3-(4-chloro-phenyl)-allyl]-piperazin-1-yl}-phenyl)-isonicotinamide]
≥ 80%: pest or weed control at 200 ppm [1] | pest or weed control at 200 ppm [2] | pest or weed control at 2 ppm [3] | pest or weed control at 200 ppm [4]

O=C(Nc1ccc(Cl)cc1N1CCN(C/C=C/c2ccc(C(F)(F)F)cc2)CC1)c1ccnc(Cl)c1 [Compound I-52, 2-chloro-N-(4-chloro-2-{4-[(E)-3-(4-trifluoromethyl-phenyl)-allyl]-piperazin-1-yl}-phenyl)-isonicotinamide]
≥ 80%: pest or weed control at 200 ppm [1] | pest or weed control at 200 ppm [2] | pest or weed control at 2 ppm [3] | pest or weed control at 200 ppm [4]

O=C(Nc1ccc(Cl)cc1N1CCN(C/C=C/c2ccc(OC(F)(F)F)cc2)CC1)c1ccnc(Cl)c1 [Compound I-53, 2-chloro-N-(4-chloro-2-{4-[(E)-3-(4-trifluoromethoxy-phenyl)-allyl]-piperazin-1-yl}-phenyl)-isonicotinamide]
≥ 80%: pest or weed control at 200 ppm [1] | pest or weed control at 200 ppm [2] | pest or weed control at 2 ppm [3] | pest or weed control at 200 ppm [4]

O=C(Nc1cc(F)ccc1N1CCN(C/C=C/c2ccc(Cl)cc2)CC1)c1ccnc(Cl)c1 [Compound I-72, 2-chloro-N-(5-fluoro-2-{4-[(E)-3-(4-chloro-phenyl)-allyl]-piperazin-1-yl}-phenyl)-isonicotinamide]
≥ 80%: pest or weed control at 200 ppm [2] | pest or weed control at 2 ppm [3] | pest or weed control at 200 ppm [4]

O=C(Nc1cc(F)ccc1N1CCN(C/C=C/c2ccc(C(F)(F)F)cc2)CC1)c1ccnc(Cl)c1 [Compound I-75, 2-chloro-N-(5-fluoro-2-{4-[(E)-3-(4-trifluoromethyl-phenyl)-allyl]-piperazin-1-yl}-phenyl)-isonicotinamide]
≥ 80%: pest or weed control at 200 ppm [1] | pest or weed control at 200 ppm [2] | pest or weed control at 2 ppm [3] | pest or weed control at 200 ppm [4]

O=C(Nc1cc(F)ccc1N1CCN(C/C=C/c2ccc(OC(F)(F)F)cc2)CC1)c1ccnc(Cl)c1 [Compound I-76, 2-chloro-N-(5-fluoro-2-{4-[(E)-3-(4-trifluoromethoxy-phenyl)-allyl]-piperazin-1-yl)-phenyl)-isonicotinamide]
≥ 80%: pest or weed control at 2 ppm [3]

O=C(Nc1cccnc1N1CCN(C/C=C/c2ccc(Cl)cc2)CC1)c1ccnc(Cl)c1 [XXIV-2, 2-chloro-N-(2-{4-[(E)-3-(4-chloro-phenyl)-allyl]-piperazin-1-yl}-pyridin-3-yl)-isonicotinamide]
≥ 80%: pest or weed control at 200 ppm [1] | pest or weed control at 200 ppm [2] | pest or weed control at 2 ppm [3]

O=C(Nc1ccc(Cl)nc1N1CCN(C/C=C/c2ccc(Cl)cc2)CC1)c1ccnc(Cl)c1 [XXIV-46, 2-chloro-N-(6-chloro-2-{4-[(E)-3-(4-chloro-phenyl)-allyl]-piperazin-1-yl}-pyridin-3-yl)-isonicotinamide]
≥ 80%: pest or weed control at 200 ppm [1] | pest or weed control at 200 ppm [2] | pest or weed control at 2 ppm [3] | pest or weed control at 200 ppm [4]

O=C(Nc1cc(Cl)cnc1N1CCN(C/C=C/c2ccc(Cl)cc2)CC1)c1ccnc(Cl)c1 [XXIV-90, 2-chloro-N-(5-chloro-2-{4-[(E)-3-(4-chloro-phenyl)-allyl]-piperazin-1-yl}-pyridin-3-yl)-isonicotinamide]
≥ 80%: pest or weed control at 200 ppm [1] | pest or weed control at 200 ppm [2] | pest or weed control at 2 ppm [3] | pest or weed control at 200 ppm [4]

O=C(Nc1cc(Cl)cnc1N1CCN(C/C=C/c2ccc(C(F)(F)F)cc2)CC1)c1ccnc(Cl)c1 [XXIV-93, 2-chloro-N-(5-chloro-2-{4-[(E)-3-(4-trifluoromethyl-phenyl)-allyl]-piperazin-1-yl}-pyridin-3-yl)-isonicotinamide]
≥ 80%: pest or weed control at 200 ppm [1] | pest or weed control at 200 ppm [2] | pest or weed control at 2 ppm [3]
